Assay: recombinant barcode read abundance after kanamycin selection (control-corrected) (log10(CPM+1)); higher = more efficient recombination; sequences stand for … in AGTGCAGAGAAAATCGGCCAGTTTTCTCTGCCTGCAGTCCGCATGCCGT…AGATTTATGCAGCGGACTGCCTTTCTCCCAAAGTGATAAACCGGACAGTATCATGGACCGGTTTTCCCGGTAATCCGTATTTGCAAGGTTGGTTTCACT; site = the 11-nt target
Summary of the method: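 Reported as log10(CPM+1), each value stands for recombination efficiency. That efficiency is the averaged, control-corrected counts per million of barcodes found at recombinant junctions. Cells from a pooled E. coli library pairing targets with IS621 bridge RNA target-binding loops were plated twice on chloramphenicol/ampicillin LB agar (control) and twice on chloramphenicol/ampicillin/kanamycin with 0.1 mM IPTG.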
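Further: IS621 recombinase and bridge RNA in Escherichia coli cells.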

| Sequence | recombinant barcode read abundance (log10) |
| --- | --- |
| GATAGGGCTTGGGTTCTAACCTGTTGCGG (site TATAGGGCTCG) | 0.362 |
| GATAGTGCTTGGGTTCTAACCTGTTGCCT (site GATAGTACTAG) | 0.0881 |
| GATAGTGCTTGGGTTCTAACCTGTTGCCT (site GATAGTCCTAG) | 0.0622 |
| GATAGTGCTTGGGTTCTAACCTGTTGCCT (site GATAGTGCTAG) | 0.536 |
| GATAGTGCTTGGGTTCTAACCTGTTGCCT (site GATAGTTCTAG) | 0.0158 |
| GATCAATCTTGGGTTCTAACCTGTTGCCT (site GAGCAAACTAG) | 0.0249 |
| GATCAATCTTGGGTTCTAACCTGTTGCCT (site GATCAATCTAG) | 0.332 |
| GATCGAGCTTGGGTTCTAACCTGTTGCGA (site GATCGAGCTTC) | 0.921 |
| GATCGAGCTTGGGTTCTAACCTGTTGCGA (site GATGGAGCTCC) | 0.428 |
| GATGGCCCTTGGGTTCTAACCTGTTGCTT (site GACGGACCTAA) | 0.101 |
| GATGGCCCTTGGGTTCTAACCTGTTGCTT (site GATGGCCCTAA) | 0.528 |
| GATGTAACTTGGGTTCTAACCTGTTGCCT (site GAAGTAACTAG) | 0.191 |
| GATGTAACTTGGGTTCTAACCTGTTGCCT (site GACGTAACTAG) | 0.101 |
| GATGTAACTTGGGTTCTAACCTGTTGCCT (site GAGGTAACTAG) | 0.0797 |
| GATGTAACTTGGGTTCTAACCTGTTGCCT (site GATGTAACTAG) | 0.956 |
| GATTCTACTTGGGTTCTAACCTGTTGCGT (site CATGCTACTAC) | 0.0209 |
| GATTCTACTTGGGTTCTAACCTGTTGCGT (site GATTCTACTAC) | 0.0518 |
| GATTCTCCTTGGGTTCTAACCTGTTGCGT (site GATTCTCCTAA) | 0.0946 |
| GATTCTCCTTGGGTTCTAACCTGTTGCGT (site GATTCTCCTAC) | 0.541 |
| GATTCTCCTTGGGTTCTAACCTGTTGCGT (site GATTCTCCTAG) | 0.141 |
| GATTCTCCTTGGGTTCTAACCTGTTGCGT (site GATTCTCCTAT) | 0.118 |
| GATTCTCCTTGGGTTCTAACCTGTTGCTT (site GATTCTCCTAA) | 0.0943 |

| Sequence | recombinant barcode read abundance (log10) |
| --- | --- |
| GATTCTCCTTGGGTTCTAACCTGTTGCTT (site GATTCTCCTAC) | 0.0499 |
| GATTCTCCTTGGGTTCTAACCTGTTGCTT (site GATTCTCCTAG) | 0.0621 |
| GATTCTCCTTGGGTTCTAACCTGTTGCTT (site GATTCTCCTAT) | 0.194 |
| GCAAATCCTTGGGTTCTAACCTGTTGCCT (site GCAAATCCTAG) | 0.873 |
| GCAAATCCTTGGGTTCTAACCTGTTGCCT (site GCACATCCTAC) | 0.108 |
| GCAACCTCTTGGGTTCTAACCTGTTGCTA (site CGCTGACCTAG) | 0.049 |
| GCAACCTCTTGGGTTCTAACCTGTTGCTA (site GCAACCTCTTA) | 1.92 |
| GCAAGTACTTGGGTTCTAACCTGTTGCAG (site AGGTTAGCTTA) | 0.106 |
| GCAAGTACTTGGGTTCTAACCTGTTGCAG (site GCAAGTACTCT) | 1.95 |
| GCACAGACTTGGGTTCTAACCTGTTGCCT (site GCAAAGCCTAG) | 0.207 |
| GCACAGACTTGGGTTCTAACCTGTTGCCT (site GCACAGACTAG) | 2.09 |
| GCACAGTCTTGGGTTCTAACCTGTTGCTT (site CCATAGTCTAA) | 0.0514 |
| GCACAGTCTTGGGTTCTAACCTGTTGCTT (site GCACAGTCTAA) | 1.93 |
| GCACGAACTTGGGTTCTAACCTGTTGCCT (site GCACGAACTAG) | 1 |
| GCACGAACTTGGGTTCTAACCTGTTGCCT (site GCCCGAACTAG) | 0.133 |
| GCACGAACTTGGGTTCTAACCTGTTGCCT (site GCGCGAACTAG) | 0.0581 |
| GCACGAACTTGGGTTCTAACCTGTTGCCT (site GCTCGAACTAG) | 0.0171 |
| GCACTACCTTGGGTTCTAACCTGTTGCCT (site GCACAACCTAG) | 0.0611 |
| GCACTACCTTGGGTTCTAACCTGTTGCCT (site GCACCACCTAG) | 0.534 |
| GCACTACCTTGGGTTCTAACCTGTTGCCT (site GCACGACCTAG) | 0.166 |
| GCACTACCTTGGGTTCTAACCTGTTGCCT (site GCACTACCTAG) | 1.37 |
| GCACTGCCTTGGGTTCTAACCTGTTGCCT (site GCACTGCCTAG) | 1.31 |

| Sequence | recombinant barcode read abundance (log10) |
| --- | --- |
| GCACTGCCTTGGGTTCTAACCTGTTGCCT (site GCCCTGCCTAG) | 0.233 |
| GCAGCGACTTGGGTTCTAACCTGTTGCCT (site GCAGCGACTAG) | 1.78 |
| GCAGCGACTTGGGTTCTAACCTGTTGCCT (site GCCGCGACTAG) | 0.148 |
| GCAGCGACTTGGGTTCTAACCTGTTGCCT (site GCGGCGACTAG) | 0.277 |
| GCAGCGACTTGGGTTCTAACCTGTTGCCT (site GCTGCGACTAG) | 0.194 |
| GCAGGGTCTTGGGTTCTAACCTGTTGCTT (site GCAGGGTCTAA) | 2.4 |
| GCAGGGTCTTGGGTTCTAACCTGTTGCTT (site GCCGGGTCTAA) | 0.658 |
| GCAGGGTCTTGGGTTCTAACCTGTTGCTT (site GCGGGGTCTAA) | 0.646 |
| GCAGGGTCTTGGGTTCTAACCTGTTGCTT (site GCTGGGTCTAA) | 0.355 |
| GCAGGTCCTTGGGTTCTAACCTGTTGCCT (site GCAGGTCCTAG) | 0.788 |
| GCAGGTCCTTGGGTTCTAACCTGTTGCCT (site GCCGGTCCTAG) | 0.512 |
| GCAGGTCCTTGGGTTCTAACCTGTTGCCT (site GCGGGTCCTAG) | 0.744 |
| GCAGGTCCTTGGGTTCTAACCTGTTGCCT (site GCTGGTCCTAG) | 0.397 |
| GCAGTAGCTTGGGTTCTAACCTGTTGCCA (site CCGGTAGCTTG) | 0.188 |
| GCAGTAGCTTGGGTTCTAACCTGTTGCCA (site GCAGTAGCTTG) | 0.382 |
| GCATATACTTGGGTTCTAACCTGTTGCGT (site AGTCCCGCTTG) | 0 |
| GCATATACTTGGGTTCTAACCTGTTGCGT (site GCATATACTAC) | 2.15 |
| GCATCGGCTTGGGTTCTAACCTGTTGCCT (site GCATCGGCTAG) | 1.22 |
| GCATCGGCTTGGGTTCTAACCTGTTGCCT (site GCCTCGGCTAG) | 0.0153 |
| GCATCGGCTTGGGTTCTAACCTGTTGCCT (site GCGTCGGCTAG) | 0.0974 |
| GCATCGGCTTGGGTTCTAACCTGTTGCCT (site GCTTCGGCTAG) | 0.0102 |
| GCATGACCTTGGGTTCTAACCTGTTGCAG (site CACAATACTAG) | 0.343 |

Reference: the supplement of paper PMC11208160
